Laboratory results reported in patent publication US10125126B2, “N-cycloalkyl-N-[(heterocyclylphenyl)methylene]-(thio)carboxamide derivatives” (BAYER CROPSCIENCE AG, priority 2012, dated 2018).

What was measured:
[1] = log P by HPLC on a reversed-phase column (C 18), EEC Directive 79/831 Annex V.A8; type: physicochemical; conditions: logP
In short: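 Gradient elution (10% to 90% acetonitrile, 0.1% aqueous formic acid) at 40° C; log P interpolated linearly between flanking alkan-2-one standards (3 to 16 carbons).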

[2] = tested on: Puccinia recondita; assay: In vivo preventive test on Puccinia recondita (brown rust on wheat); conditions: 500 ppm of active ingredient; wheat plants; 12 days after contamination
In short: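 Wheat plants ("Scipion") at 1-leaf stage, grown at 22° C, were sprayed with compound, then inoculated 24 h later with Puccinia recondita spores (100 000 spores per mL). Efficacy (%) graded 12 days after inoculation relative to solvent-treated controls.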

[3] = tested on: Blumeria graminis f.sp. hordei; assay: In vivo preventive test on Blumeria graminis (barley); conditions: 500 ppm of active ingredient, evaluated 7 days after inoculation
Protocol: In Vivo Preventive Test on Blumeria graminis (Barley) [table] To produce a suitable preparation of active compound, 1 part by weight of active compound or active compound combination is mixed with the stated amounts of solvent and emulsifier, and the concentrate is diluted with water to the desired concentration. To test for preventive activity, young plants are sprayed with the preparation of active compound or active compound combination at the stated rate of application. After the spray coating has been dried, the plants are dusted with spores of Blumeria graminis f.sp. hordei.

SMILES: CC(C)c1ccc(-c2csc3ccccc23)cc1CN(C(=O)c1c(C(F)F)nn(C)c1F)C1CC1 [I.157, N-[5-(1-benzothiophen-3-yl)-2-isopropylbenzyl]-N-cyclopropyl-3-(difluoromethyl)-5-fluoro-1-methyl-1H-pyrazole-4-carboxamide]
- chromatographic logP [1]: 5.17
- Efficacy [2]: 98%
- Efficacy [3]: 100%
